Molecular target: CBP (Homo sapiens (Human), UniProt Q92793)
Experiment: HTRF biochemical assay for CBP activity (TR-FRET, bromodomain)
Assay type: binding
Settings: geometric mean, 10-point 3-fold dilution 33 μM to 1.7 nM, read-out: BROMO IC50 TRF TB CBP (μM gmean)
Experimental: Example 1: HTRF Biochemical Assay for CBP Activity
The assay was performed in a final volume of 6 μL in assay buffer containing 50 mM Hepes (pH 7.5, (0.5M Hepes, pH 7.5 solution; Teknova H1575)), 0.5 mM GSH, 0.01% BGG (0.22 p M filtered, Sigma, G7516-25G), 0.005% BSA (0.22 μM filtered, EMD Millipore Corporation, 126575) and 0.01% Triton X-100 (Sigma, T9284-10L). Nanoliter quantities of 10-point, 3-fold serial dilution in DMSO were pre-dispensed into 1536 assay plates (Corning, #3724BC) for a final test concentration of 33 μM to 1.7 nM, top to lowest dose, respectively. 3 μL of 2×Protein and 3 μL of 2×Peptide Ligand were added to assay plates (pre-stamped with compound). Plates were incubated for varying times at room temperature prior to measuring the signal. TR-FRET (Time-Resolved Fluorescence Resonance Energy Transfer) was measured on the PHERAstar (BMG, equipped with HTRF optic module [337/520/490]) or on the Envision (PerkinElmer, equipped with the TRF Laser unit, TRF dual mirror D400/D505 and emission filters M520 and M495). Data were reported as percent inhibition compared with control wells based on the following equation: % inh=1−((TR-FRET ratio−AveLow)/(AveHigh−AveLow)) where TR-FRET ratio=(Fluorescence at 520 nm/Fluorescence at 490 nm)*10000), AveLow=average TR-FRET ratio of no enzyme control (n=32), and AveHigh=average TR-FRET ratio of DMSO control (n=32). IC50 values were determined by curve fitting of the standard 4 parameter logistic fitting algorithm included in the Activity Base software package: IDBS XE Designer Model205. Data is fitted using the Levenburg Marquardt algorithm. As set forth in Table 2 below, an IC50 value of greater than or equal to 0.001 μM and less than or equal to 0.01 μM is marked “++++”; a value greater than 0.01 μM and less than or equal to 0.1 μM is marked “+++”; a value greater than 0.1 μM and less than or equal to 1 μM is marked “++”; and a value greater than 1 μM and less than 1000 μM is marked “+.” Compounds that were not tested in a particular assay are marked “NT.”

Sequence of CBP (Q92793 1085-1192): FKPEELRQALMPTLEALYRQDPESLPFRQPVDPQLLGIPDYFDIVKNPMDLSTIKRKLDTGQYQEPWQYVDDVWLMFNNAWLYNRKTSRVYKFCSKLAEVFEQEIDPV

| Compound | IC50 [µM] |
| --- | --- |
| COC(=O)N1CCc2ccc3c(nc([C@@H]4CCC[C@@H](C(=O)O)C4)n3C[C@@H](C)c3ccc(F)c(F)c3)c2C1 (single isomer, unassigned) [Compound 148] | 0.001 to 0.01 |
| COC(=O)N1CCc2ccc3c(nc([C@H]4CCC[C@H](C(=O)O)C4)n3[C@H](C)Cc3ccccc3C)c2C1 (single isomer, unassigned) [Compound 163] | 0.001 to 0.01 |
| COC(=O)N1CCc2ccc3c(nc(C4CCCC4)n3C[C@H](CC(=O)O)c3ccccc3)c2C1 (single isomer, unassigned) [Compound 174] | 0.01 to 0.1 |
| COC(=O)N1CCc2ccc3c(nc([C@H]4CCC[C@H](C(=O)O)C4)n3[C@H](C)Cc3ccccc3Cl)c2C1 (single isomer, unassigned) [Compound 176] | 0.01 to 0.1 |
| COC(=O)N1CCc2ccc3c(nc(C4CCCCC4)n3C[C@H](CC(=O)O)c3ccc(F)c(F)c3)c2C1 (single isomer, unassigned) [Compound 189] | 0.01 to 0.1 |
| COC(=O)N1CCc2ccc3c(nc([C@@H]4CCC[C@H](C(=O)O)C4)n3[C@@H](C)Cc3ccccc3)c2C1 (single isomer, unassigned) [Compound 203] | 0.01 to 0.1 |
| COC(=O)N1CCc2ccc3c(nc(C4CCCCC4)n3C[C@H](C(=O)O)c3cc(F)c(Cl)cc3OC)c2C1 (single isomer, unassigned) [Compound 229] | 0.01 to 0.1 |
| COC(=O)N1CCc2ccc3c(nc([C@@H]4CCC[C@H](C(=O)O)C4)n3[C@H](C)Cc3ccccc3)c2C1 (single isomer, unassigned) [Compound 233] | 0.01 to 0.1 |
| COC(=O)N1CCc2ccc3c(nc([C@@H]4CCC[C@@H](C(=O)O)C4)n3[C@H](C)Cc3ccccc3Cl)c2C1 (single isomer, unassigned) [Compound 263] | 0.01 to 0.1 |
| COC(=O)N1CCc2ccc3c(nc(C4CCCCC4)n3C[C@@H](C(=O)O)c3cc(F)c(C)cc3OC)c2C1 (single isomer, unassigned) [Compound 278] | 0.01 to 0.1 |
| COC(=O)N1CCc2ccc3c(nc([C@H]4CC[C@H](C(=O)O)CC4)n3[C@H](C)Cc3ccc(C)c(F)c3)c2C1 (single isomer, unassigned) [Compound 283] | 0.01 to 0.1 |
| COC(=O)N1CCc2ccc3c(nc([C@@H]4CCC[C@@H](C(=O)O)C4)n3[C@H](C)Cc3ccccc3C)c2C1 (single isomer, unassigned) [Compound 284] | 0.01 to 0.1 |
| COC(=O)N1CCc2ccc3c(nc([C@H]4CC[C@H](C(=O)NS(C)(=O)=O)CC4)n3[C@H](C)Cc3ccccc3)c2C1 (single isomer, unassigned) [Compound 290] | 0.1 to 1 |
| COC(=O)N1CCc2ccc3c(nc(N4CCC(C(=O)O)CC4)n3[C@H](C)Cc3ccc(F)c(F)c3)c2C1 (single isomer, unassigned) [Compound 307] | 0.1 to 1 |
| COC(=O)N1CCc2ccc3c(nc(N4CCC(C(=O)O)CC4)n3[C@H](C)Cc3ccccc3)c2C1 (single isomer, unassigned) [Compound 325] | 0.1 to 1 |
| COC(=O)N1CCc2ccc3c(nc([C@H]4CCC[C@H](C(=O)O)C4)n3C(C)Cc3ccccc3Cl)c2C1 (stereo in doubt) [Compound 19, (1S,3S)-3-{3-[(2R)-1-(2-chlorophenyl)propan-2-yl]-8-(methoxycarbonyl)-3H,6H,7H,8H,9H-imidazo[4,5-h]isoquinolin-2-yl}cyclohexane-1-carboxylic acid] | 0.001 to 0.01 |
| COC(=O)N1CCc2ccc3c(nc(C4CCCC(C(=O)O)C4)n3C[C@H](C)c3ccc(F)c(F)c3)c2C1 (stereo in doubt) [Compound 30, (1S,3S)-3[3-[(2R)-2-(3,4-difluorophenyl)propyl]-8-(methoxycarbonyl)-3H,6H,7H,8H,9H-imidazo[4,5-h]isoquinolin-2-yl]cyclohexane-1-carboxylic acid] | 0.001 to 0.01 |
| COC(=O)N1CCc2ccc3c(nc([C@@H]4CCC[C@@H](C(=O)O)C4)n3C(C)Cc3ccccc3)c2C1 (stereo in doubt) [Compound 99, (1R,3R)-3-[8-(methoxycarbonyl)-3-[(2S)-1-phenylpropan-2-yl]-3H,6H,7H,8H,9H-imidazo[4,5-h]isoquinolin-2-yl]cyclohexane-1-carboxylic acid] | 0.001 to 0.01 |
| COC(=O)N1CCc2ccc3c(nc([C@@H]4CCC[C@@H](C(=O)O)C4)n3C(C)Cc3ccccc3)c2C1 (stereo in doubt) [Compound 298, (1R,3R)-3-[8-(methoxycarbonyl)-3-[(2R)-1-phenylpropan-2-yl]-3H,6H,7H,8H,9H-imidazo[4,5-h]isoquinolin-2-yl]cyclohexane-1-carboxylic acid] | 0.1 to 1 |
| COC(=O)N1CCc2ccc3c(nc([C@H]4CC[C@H](OC)CC4)n3C[C@H](C(=O)O)c3ccccc3)c2C1 [Compound 1] | 0.001 to 0.01 |
| COC(=O)N1CCc2ccc3c(nc(C4CCCCC4)n3C[C@@H](CC(=O)O)c3ccc(F)c(F)c3)c2C1 [Compound 4, (3S)-4-[2-cyclohexyl-8-(methoxycarbonyl)-3H,6H,7H,8H,9H-imidazo[4,5-h]isoquinolin-3-yl]-3-(3,4-difluorophenyl)butanoic acid] | 0.001 to 0.01 |
| COC(=O)N1CCc2ccc3c(nc([C@H]4CC[C@H](C(=O)O)CC4)n3[C@@H](C)Cc3c(C)cccc3C)c2C1 [Compound 6] | 0.001 to 0.01 |

| Compound | IC50 [µM] |
| --- | --- |
| COC(=O)N1CCc2ccc3c(nc([C@H]4CC[C@H](C(=O)O)CC4)n3[C@@H](C)Cc3ccccc3C)c2C1 [Compound 7] | 0.001 to 0.01 |
| COC(=O)N1CCc2ccc3c(nc(C4CCCCC4)n3C[C@@H](CC(=O)O)c3ccccc3)c2C1 [Compound 8] | 0.001 to 0.01 |
| COC(=O)N1CCc2ccc3c(nc(C4CCCCC4)n3C[C@H](C(=O)O)c3ccc(F)c(OC)c3)c2C1 [Compound 9] | 0.001 to 0.01 |
| COC(=O)N1CCc2ccc3c(nc(C4CCCCC4)n3C[C@@H](CC(=O)O)c3ccc(F)c(F)c3)c2C1 [Compound 21] | 0.001 to 0.01 |
| COC(=O)N1CCc2ccc3c(nc(N4CCCCC4)n3C[C@@H](CC(=O)O)c3ccc(F)c(F)c3)c2C1 [Compound 25] | 0.001 to 0.01 |
| COC(=O)N1CCc2ccc3c(nc(C4CCCCC4)n3C[C@@H](CC(=O)O)c3cc(F)cc(OC)c3)c2C1 [Compound 35] | 0.001 to 0.01 |
| COC(=O)N1CCc2ccc3c(nc(C4CCCCC4)n3C[C@H](CC(=O)O)c3cc(F)cc(OC)c3)c2C1 [Compound 36] | 0.001 to 0.01 |
| COC(=O)N1CCc2ccc3c(nc(C4CCCCC4)n3C[C@H](CC(=O)O)c3cc(F)cc(F)c3)c2C1 [Compound 37] | 0.001 to 0.01 |
| COC(=O)N1CCc2ccc3c(nc(C4CCCCC4)n3C[C@H](C(=O)O)c3ccccc3)c2C1 [Compound 38] | 0.001 to 0.01 |
| COC(=O)N1CCc2ccc3c(nc(C4CCCCC4)n3[C@@H](C)CC3CCCC[C@@H]3C(=O)O)c2C1 (some centres unmarked) [Compound 39] | 0.001 to 0.01 |
| COC(=O)N1CCc2ccc3c(nc([C@H]4CC[C@H](C(=O)O)CC4)n3[C@H](C)Cc3ccc(F)c(F)c3)c2C1 [Compound 40] | 0.001 to 0.01 |
| COC(=O)N1CCc2ccc3c(nc([C@H]4CC[C@@](C)(C(=O)O)CC4)n3[C@@H](C)Cn3cc(Cl)cn3)c2C1 [Compound 41] | 0.001 to 0.01 |
| COC(=O)N1CCc2ccc3c(nc([C@H]4CC[C@H](C(=O)O)CC4)n3[C@@H](C)Cc3ccccc3Cl)c2C1 [Compound 42] | 0.001 to 0.01 |
| COC(=O)N1CCc2ccc3c(nc([C@H]4CC[C@H](C(=O)O)CC4)n3[C@@H](C)Cc3ccc(F)c(OC)c3)c2C1 [Compound 43] | 0.001 to 0.01 |
| COC(=O)N1CCc2c([C@@H]3CCOC3)cc3c(nc([C@H]4CC[C@H](C(=O)O)CC4)n3[C@H](C)Cc3ccccc3)c2C1 [Compound 44] | 0.001 to 0.01 |
| COC(=O)N1CCc2ccc3c(nc(N4CCC(C(=O)O)CC4)n3[C@@H](C)Cc3cc(F)cc(F)c3)c2C1 [Compound 45] | 0.001 to 0.01 |
| COC(=O)N1CCc2ccc3c(nc(N4CCC(C(=O)O)CC4)n3[C@@H](C)Cn3cc(C(F)(F)F)cn3)c2C1 [Compound 46] | 0.001 to 0.01 |
| COC(=O)N1CCc2ccc3c(nc(N4CCCCC4)n3C[C@@H](CC(=O)O)c3ccccc3)c2C1 [Compound 47] | 0.001 to 0.01 |
| COC(=O)N1CCc2ccc3c(nc(C4CCCCC4)n3[C@@H](C)C[C@H]3CC[C@H](C(=O)O)CC3)c2C1 [Compound 48] | 0.001 to 0.01 |
| COC(=O)N1CCc2ccc3c(nc([C@H]4CC[C@@](C)(C(=O)O)CC4)n3[C@@H](C)Cc3ccccc3)c2C1 [Compound 49] | 0.001 to 0.01 |
| COC(=O)N1CCc2c([C@@H]3CCOC3)cc3c(nc([C@H]4CC[C@H](C(=O)O)CC4)n3[C@@H](C)Cc3ccccc3)c2C1 [Compound 50] | 0.001 to 0.01 |
| COC(=O)N1CCc2ccc3c(nc([C@H]4CC[C@H](C(=O)O)CC4)n3[C@H](C)Cc3ccccc3F)c2C1 [Compound 51] | 0.001 to 0.01 |
